The subject of data set [1] is phospho-ERK1/2 in serum-starved A549 cells. Put plainly: Inhibition of ERK1/2 phosphorylation (Western blot, densitometry). The format is cell-based. To be noted: 4 h, Western blot with pERK antibodies. On the procedure: (§1) All steps were performed on a sterile clean bench Telstar AV-100 at rt. Solutions stored in a fridge were warmed beforehand in a water bath (37 °C). Unless otherwise specified, all incubations were performed in DMEM containing 5% of fetal bovine serum (FBS-DMEM). Cell Culture: A549 cell line was cultured in DMEM (Dulbecco´s modified Eagle´s medium), 5 mM glutamine, penicillin (100 units/mL) and streptomycin (100 units/mL), all from Invitrogen. Proliferating cultures were maintained in a 5% CO2 humidified incubator at 37 °C. For all the experiments, cells were seeded in the corresponding well at the indicated concentration 2 days before treatment. A549 cells were seeded on glass-bottom plates 48 h (150.000 cell/ml) before treatment. […] (10 µM) were added. The metallopeptide was made just before the addition to cells by pre-incubating with metal complexes (1:1) in water for 10 min. After 30 min of incubation with cells, these were washed twice with PBS and replaced with fresh FBS-DMEM to observe under the microscope with adequate filters. Digital pictures of the different samples were taken under identical conditions of gain and exposure. A549 cells were seeded on glass-bottom plates (150.000 cell/ml) 48 h before treatment. […] After two washes with PBS, the cells were lysed in Laemmli buffer containing Tris pH 6,8 1 M, Glycerol, SDS, Bromophenol Blue, and β-mercaptoethanol, and heated at 95 °C for 10 min. The samples were separated by SDS-12.5% polyacrylamide gel and transferred to nitrocellulose membrane, to probed by Western blotting. […] The visualization was performed with ChemiDoc MP imaging system by Biorad, and the processing of the images and densitometry quantification was carried out with ImageLab program.

In data set [2] the test system is HeLa cells. As to the kind of experiment: MTT toxicity assay. The conditions noted are these: long incubation (24 h), up to 100 µM.
Method: cells as follows: 100,000 cells per well were seeded in 96 well plates two days before treatment with different
concentrations of the peptides/metal. After 24 h of incubation, HEPES containing 3-(4,5-dimethylthiazol-2-
yl)-2,5-diphenyl tetrazolium bromide (MTT) was added to the cell culture medium to a final concentration of
0.5 mg/ml. Cells were then incubated for 4 h to allow the formation of formazan precipitates by metabolically
active cells. A detergent solution of 10% SDS (sodium dodecyl sulphate) and 0.01 M HCl was then added,
and the plate was incubated overnight at room temperature to allow the solubilization of the precipitates.
The quantity of formazan in each well (directly proportional to the number of viable cells) was measured by
recording changes in absorbance at 570 nm in a microtiter plate reading spectrophotometer (Tecan Infinite
Toxicity assay. HeLa cells were incubated with peptide, metallopeptide and palladium at
different concentrations, for 24 h at 37 °C. Then, the cells were washed two time with PBS before carry ing
out the MTT assay. Data are mean +/- SEM for experimental repeated in two independent times.
Data set [3] concerns A549 cells. As to the kind of experiment: Cell internalization by fluorescence microscopy. The format is cell-based. The conditions noted are these: for cellular internalization (intracellular TMR fluorescence), in words: A549 cells, 10 µM, 30 min at 37 °C, DMEM with 5% FBS, washed with PBS, fluorescence microscopy. How it is done: as §1
All images were obtained with an Andor Zyla mounted on a Nikon TiE. LED excitation wavelength 550 nm. Filter cube TRITC-B-000 (Semrock): BP 543/22 nm, […] 593/40 nm, and DM 562 nm. Images were further processed with Image J.

The nature of data set [4]: Circular dichroism (α-helical content). The format is physicochemical. To be noted: 10% TFE, 25 °C. On the procedure: Circular Dichroism was measured on a Jasco-715 coupled with a thermostat Nestlab RTE-111 using a 2 mm Hellma cuvette at 25 °C and the following settings: Acquisition range, 300-195 nm; band width, 2.0 nm; resolution, 0.2 nm; accumulation, 5 scans; sensitivity, 10 mdeg; response time, 0.25 s; speed, 100 nm/min. The spectra are the average of 5 scans and were processed using the “smooth” macro in the program KaleidaGraph (v 3.5 by Synergy Software).
Circular Dichroism. Circular Dichroism was measured on a Jasco-715 coupled with a thermostat Nestlab RTE-111 using a 2 mm Hellma cuvette at 25 °C and the following settings: Acquisition range, 300 -195 nm; band width, 2.0 nm; resolution, 0.2 nm; accumulation, 5 scans; sensitivity, 10 mdeg; response time, 0.25 s; speed, 100 nm/min. The spectra are the average of 5 scans and were processed using the “smooth” macro in the program KaleidaGraph (v 3.5 by Synergy Software).
Fig S3. Left: CD titration experiment.
5 and 10 equivalents of cis-PdCl2(en). The experiments were carried out in 10 mM phosphate buffer pH 7.5, 100 mM of NaCl and 10% TFE, 25 °C. Mean residue molar ellipticity ([ Θ]MRE) was calculated considering the peptide as an 18-mer.
(1 picture or pasted object on this page, not shown here)

For the molecule `NCCN.[Cl][Pd][Cl]` [cis-PdCl2(en), reference compound], the “levels of ERK phosphorylation, in words” value in data set [1] is given as “failed to induce changes”. In addition, the “cell viability in MTT assay, in words” value in data set [2] is given as “remains high”.

For the molecule `CC[C@H](C)[C@H](NC(=O)CNC(=O)[C@H](Cc1ccccc1)NC(=O)[C@H](Cc1ccccc1)NC(=O)[C@H](CCCNC(=N)N)NC(=O)[C@H](CCCNC(=N)N)NC(=O)CCCCCNC(=O)c1ccc2c(c1)C(=O)OC21c2ccc(N(C)C)cc2Oc2cc(N(C)C)ccc21)C(=O)N[C@@H](Cc1c[nH]cn1)C(=O)N[C@@H](CC(C)C)C(=O)N[C@H](C(=O)N[C@@H](CC(N)=O)C(=O)N[C@@H](Cc1c[nH]cn1)C(=O)N[C@@H](CC(C)C)C(=O)N[C@@H](CCCCN)C(=O)N[C@H](C(=O)N[C@@H](CCC(=O)O)C(=O)N[C@@H](CCC(=O)O)C(=O)NCC(=O)N[C@@H](CC(N)=O)C(N)=O)[C@@H](C)O)[C@@H](C)O` [αH-His2[Pd]], the “cellular internalization (intracellular TMR fluorescence), in words” value in data set [3] was “intense intracellular fluorescence signal”. Also, in data set [3] (cells incubated with the metallopeptide, authors' reply to reviewers), the “cell localization by fluorescence microscopy” value is given as “endosomal localization”. Also, the “levels of ERK phosphorylation, in words” value in data set [1] is “significant decrease”. In addition, the α-helical content result in data set [4] (from CD band at 222 nm, 20 µM peptide + 1 eq. cis-PdCl2(en), 10 mM phosphate pH 7.5, 100 mM NaCl) was “about 22%”.

As for TMR-Ahx-RRFFGIHLTNHLKTEEGN [αH-His2], the “cellular internalization (intracellular TMR fluorescence), in words” value in data set [3] is listed as “rather poor internalization”. Moreover, the “levels of ERK phosphorylation, in words” value in data set [1] is on record as “failed to induce changes”. Moreover, the “mean residue molar ellipticity at 222 nm” value in data set [4] (CD, 20 µM peptide, 10 mM phosphate buffer pH 7.5, 100 mM NaCl, calculated for an 18-mer, metallopeptide 30 min after 1 eq. cis-PdCl2(en)) is “≈ −2200 deg cm^2 dmol^−1”.

(Values after PMC9814687, “Controlling oncogenic KRAS signaling pathways with a Palladium-responsive peptide” (Communications Chemistry, 2022).)
